Data reported in the NIST ThermoML archive (doi:10.1016/j.fluid.2018.04.024).
Numbers after ± are expanded uncertainties.

Details: Liquid, Vibrating tube method

CCCCCCCC(=O)OC [methyl octanoate]
mass density [kg/m3]
Details | 293.15 K | 303.15 K | 313.15 K | 323.15 K | 333.15 K | 343.15 K | 353.15 K | 363.15 K
100 kPa | 876.9 ± 0.9 | 867.63 ± 0.89 | 859.3 ± 0.89 | 850.11 ± 0.88 | 841.41 ± 0.87 | 832.2 ± 0.86 | 823.55 ± 0.85 | 814.86 ± 0.84
1000 kPa | 877.02 ± 0.9 | 868.42 ± 0.9 | 859.59 ± 0.89 | 850.91 ± 0.88 | 842.13 ± 0.87 | 833.32 ± 0.86 | 824.37 ± 0.85 | 815.91 ± 0.85
3000 kPa | 878.65 ± 0.91 | 869.93 ± 0.9 | 861.28 ± 0.89 | 852.59 ± 0.88 | 844.08 ± 0.88 | 835.25 ± 0.87 | 826.59 ± 0.86 | 818.18 ± 0.85
5000 kPa | 879.78 ± 0.91 | 871.47 ± 0.9 | 862.89 ± 0.9 | 854.3 ± 0.89 | 845.82 ± 0.88 | 837.24 ± 0.87 | 828.51 ± 0.86 | 820.31 ± 0.86
10000 kPa | 883.45 ± 0.92 | 875.12 ± 0.91 | 866.8 ± 0.91 | 858.46 ± 0.9 | 850.11 ± 0.89 | 841.71 ± 0.88 | 833.34 ± 0.88 | 825.1 ± 0.87
15000 kPa | 886.82 ± 0.93 | 878.71 ± 0.92 | 870.52 ± 0.92 | 862.36 ± 0.91 | 854.18 ± 0.9 | 846.06 ± 0.9 | 838.05 ± 0.89 | 830.33 ± 0.89
20000 kPa | 890.07 ± 0.94 | 882.04 ± 0.93 | 874.1 ± 0.92 | 866.24 ± 0.92 | 858.22 ± 0.91 | 850.39 ± 0.91 | 842.32 ± 0.9 | 834.62 ± 0.9
25000 kPa | 893.28 ± 0.94 | 885.35 ± 0.94 | 877.59 ± 0.93 | 869.67 ± 0.93 | 862.06 ± 0.92 | 854.17 ± 0.92 | 846.49 ± 0.92 | 838.84 ± 0.91
30000 kPa | 896.35 ± 0.95 | 888.57 ± 0.95 | 880.87 ± 0.94 | 873.15 ± 0.94 | 865.57 ± 0.94 | 858.07 ± 0.93 | 850.48 ± 0.93 | 843.09 ± 0.93
35000 kPa | 899.25 ± 0.96 | 891.59 ± 0.96 | 884.11 ± 0.95 | 876.46 ± 0.95 | 869.05 ± 0.95 | 861.81 ± 0.94 | 854.32 ± 0.94 | 847.13 ± 0.94
40000 kPa | 902.05 ± 0.97 | 894.49 ± 0.96 | 887.04 ± 0.96 | 879.75 ± 0.96 | 872.61 ± 0.96 | 865.19 ± 0.95 | 857.88 ± 0.95 | 851.06 ± 0.95
50000 kPa | 907.81 ± 0.98 | 900.27 ± 0.98 | 893.07 ± 0.98 | 885.93 ± 0.98 | 878.98 ± 0.98 | 872.01 ± 0.98 | 864.82 ± 0.98 | 858.24 ± 0.98
60000 kPa | 912.62 ± 0.99 | 905.64 ± 0.99 | 898.5 ± 0.99 | 891.84 ± 0.99 | 884.95 ± 1 | 877.98 ± 1 | 871.35 ± 1 | 865.07 ± 1

CCCCC(=O)OC [methyl pentanoate]
mass density [kg/m3]
Details | 293.15 K | 303.15 K | 313.15 K | 323.15 K | 333.15 K | 343.15 K | 353.15 K | 363.15 K
100 kPa | 890.18 ± 0.92 | 879.57 ± 0.91 | 869.49 ± 0.9 | 858.83 ± 0.89 | 848.52 ± 0.88 | 837.8 ± 0.87 | 827.35 ± 0.86 | 816.63 ± 0.85
1000 kPa | 890.39 ± 0.92 | 880.52 ± 0.91 | 869.89 ± 0.9 | 859.81 ± 0.89 | 849.45 ± 0.88 | 839.04 ± 0.87 | 828.43 ± 0.86 | 817.89 ± 0.85
3000 kPa | 892.23 ± 0.92 | 882.29 ± 0.91 | 871.87 ± 0.9 | 861.81 ± 0.89 | 851.71 ± 0.88 | 841.41 ± 0.87 | 831.13 ± 0.86 | 820.7 ± 0.86
5000 kPa | 893.59 ± 0.92 | 884.05 ± 0.91 | 873.76 ± 0.91 | 863.85 ± 0.9 | 853.79 ± 0.89 | 843.76 ± 0.88 | 833.48 ± 0.87 | 823.32 ± 0.86
10000 kPa | 897.77 ± 0.93 | 888.3 ± 0.92 | 878.33 ± 0.92 | 868.67 ± 0.91 | 858.86 ± 0.9 | 849.05 ± 0.89 | 839.27 ± 0.88 | 829.23 ± 0.88
15000 kPa | 901.59 ± 0.94 | 892.37 ± 0.93 | 882.44 ± 0.92 | 873.18 ± 0.92 | 863.66 ± 0.91 | 854.23 ± 0.9 | 844.84 ± 0.9 | 835.46 ± 0.89
20000 kPa | 905.28 ± 0.95 | 896.14 ± 0.94 | 886.62 ± 0.93 | 877.67 ± 0.93 | 868.26 ± 0.92 | 859.25 ± 0.91 | 849.86 ± 0.91 | 840.59 ± 0.9
25000 kPa | 908.91 ± 0.95 | 899.89 ± 0.95 | 890.61 ± 0.94 | 881.64 ± 0.94 | 872.72 ± 0.93 | 863.69 ± 0.93 | 854.79 ± 0.92 | 845.61 ± 0.92
30000 kPa | 912.4 ± 0.96 | 903.55 ± 0.96 | 894.38 ± 0.95 | 885.65 ± 0.95 | 876.79 ± 0.94 | 868.17 ± 0.94 | 859.45 ± 0.93 | 850.57 ± 0.93
35000 kPa | 915.63 ± 0.97 | 906.97 ± 0.96 | 898.09 ± 0.96 | 889.44 ± 0.96 | 880.79 ± 0.95 | 872.41 ± 0.95 | 863.9 ± 0.94 | 855.31 ± 0.94
40000 kPa | 918.78 ± 0.97 | 910.27 ± 0.97 | 901.45 ± 0.97 | 893.13 ± 0.96 | 884.78 ± 0.96 | 876.28 ± 0.96 | 868 ± 0.96 | 859.8 ± 0.95
50000 kPa | 925.12 ± 0.99 | 916.73 ± 0.98 | 908.24 ± 0.98 | 900.12 ± 0.98 | 892.02 ± 0.98 | 884.03 ± 0.98 | 875.94 ± 0.98 | 868.09 ± 0.98
60000 kPa | 930.63 ± 1 | 922.74 ± 1 | 914.32 ± 1 | 906.77 ± 0.99 | 898.8 ± 0.99 | 890.84 ± 0.99 | 883.37 ± 1 | 875.9 ± 1
